≈ marks a conversion by molar mass, not a printed value. Entries after “also recorded” stand apart in the source; their conditions may differ.
Tests used:
Type in all cases: physicochemical
[1] = Chemical stability study at elevated temperature and controlled relative humidity
Protocol: A study was conducted on a sample of Compound 1 (Form B) where samples were exposed (open) to a range of elevated temperatures (50-80° C.) and controlled relative humidity (RH) (0-80% RH).

[2] = Slurry competition of Form B and Form C at different water activity (XRPD); conditions: for Results (solid form after slurry competition): 4 days
Protocol: (§1) High resolution XRPD experiments were performed with Panalytical X′Pert^3 Powder XRPD on a Si zero-background holder. The 2θposition was calibrated against Panalytical 640 Si powder standard.
Form C was dissolved in three solvent mixtures (see Table 7) to get saturated solutions. Similar mass of Form B and Form C were added into the saturated solutions. The suspensions obtained were stirred at room temperature for 4 days and the solids collected were analyzed with XRPD.

[3] = Dynamic Vapor Sorption (DVS) of Form B
Text: DVS was obtained using a Surface Measurement System (SMS) DVS Intrinsic. The details of the method are providing in Table 4, below:
The sample was non-hygroscopic.

[4] = Kinetic solubility of Form B in formulation (0.5% MC, 0.5% Tween 80 in water), HPLC; conditions: 0.5% MC and 0.5% Tween 80 in water
Protocol: High Pressure Liquid Chromatography (HPLC) data was obtained according to Table 5, below:
(§2) Kinetic solubility and phase stability of Form B was tested in a formulation (0.5% methyl cellulose (MC) and 0.5% Tween 80 in water). The sample was monitored by XRPD at 1, 2, 4 and 24 hours for phase stability. […] Kinetic solubility of Form B was measured in the same formulation at time points of 1, 2, 4 and 24 hour (Table 8). The supernatant was obtained by filtration and the concentration was measured by HPLC.

[5] = Phase stability of Form B in formulation (XRPD); conditions: after 24 h; 0.5% MC and 0.5% Tween 80 in water
Protocol: as §1, §2

[6] = Slurry stability evaluation of Mixture A (XRPD of collected solids); conditions: 4 days
Protocol: as §1
The solids collected were analyzed by XRPD to confirm the form change.

Cn1cnc2cc(-c3ccc(C(=O)N4CCN(C(=O)C5(O)CC5)CC4)c(F)c3)ccc21 [Compound 1, (4-(2-fluoro-4-(1-methyl-1H-benzo[d]imidazol-5-yl)benzoyl)piperazin-1-yl)(1-hydroxycyclopropyl)methanone]
estimated shelf life ([1]; 25° C./60% RH, Form B sample): greater than 5 years
chemical stability ([1]; Form B sample exposed open to 50-80° C., 0-80% RH): good chemical stability

Cn1cnc2cc(-c3ccc(C(=O)N4CCN(C(=O)C5(O)CC5)CC4)c(F)c3)ccc21 [Form B and Form C, (4-(2-fluoro-4-(1-methyl-1H-benzo[d]imidazol-5-yl)benzoyl)piperazin-1-yl)(1-hydroxycyclopropyl)methanone]
Results (solid form after slurry competition) ([2]; H2O/MeOH (85:915 v/v), Aw 0.25, RT): Form B
Results (solid form after slurry competition) ([2]; H2O/MeOH (225:775 v/v), Aw 0.5, RT): Form B
Results (solid form after slurry competition) ([2]; H2O/MeOH (494:506 v/v), Aw 0.75, 50° C.): Form B
form conversion in slurry competition (summary) ([2]; H2O/MeOH mixtures, Aw 0.25-0.75, 4 days): converted completely to Form B

Cn1cnc2cc(-c3ccc(C(=O)N4CCN(C(=O)C5(O)CC5)CC4)c(F)c3)ccc21 [Form B, (4-(2-fluoro-4-(1-methyl-1H-benzo[d]imidazol-5-yl)benzoyl)piperazin-1-yl)(1-hydroxycyclopropyl)methanone]
form change before and after DVS (XRPD) [3]: no form change
hygroscopicity (DVS) ([3]; 25° C.): non-hygroscopic
mass change (DVS) ([3]; from 0% RH to 95% RH at 25° C.): 0.46 wt %
solubility at 1 h ([4]; 0.5% methyl cellulose and 0.5% Tween 80 in water, aqueous with cosolvent or surfactant or cyclodextrin, thermodynamic from solid, 1 h, RT): 62 µg/mL (≈ 147 µM)
solubility at 2 h ([4]; 0.5% methyl cellulose and 0.5% Tween 80 in water, aqueous with cosolvent or surfactant or cyclodextrin, thermodynamic from solid, 2 h, RT): 62 µg/mL (≈ 147 µM)
solubility at 4 h ([4]; 0.5% methyl cellulose and 0.5% Tween 80 in water, aqueous with cosolvent or surfactant or cyclodextrin, thermodynamic from solid, 4 h, RT): 63 µg/mL (≈ 149 µM)
solubility at 24 h ([4]; 0.5% methyl cellulose and 0.5% Tween 80 in water, aqueous with cosolvent or surfactant or cyclodextrin, thermodynamic from solid, 24 h, RT): 60 µg/mL (≈ 142 µM)
Purity of solubility sample ([4]; 1 h): 97.8 % area at 240 nm
Purity of solubility sample ([4]; 2 h): 97.8 % area at 240 nm
Purity of solubility sample ([4]; 4 h): 97.7 % area at 240 nm
Purity of solubility sample ([4]; 24 h): 97.7 % area at 240 nm
course of solubility over time ([4]; during 24 hours at RT): remained stable
degradation in the solubility sample / vehicle ([4]; up to 24 h): No significant degradation; also recorded: no form change or significant degradation
phase transformation / form change in formulation (XRPD) [5]: no phase transformation; also recorded: no form change

Cn1cnc2cc(-c3ccc(C(=O)N4CCN(C(=O)C5(O)CC5)CC4)c(F)c3)ccc21 [Mixture A, (4-(2-fluoro-4-(1-methyl-1H-benzo[d]imidazol-5-yl)benzoyl)piperazin-1-yl)(1-hydroxycyclopropyl)methanone]
Results (solid form after slurry) ([6]; ACN, 50° C.): Form B
Results (solid form after slurry) ([6]; ACN, RT): Form B
form conversion of solids from the slurries (summary) ([6]; EtOAc or ACN, RT or 50° C.): converted to Form B completely
Results (solid form after slurry) ([6]; EtOAc, 50° C.): Form B
Results (solid form after slurry) ([6]; EtOAc, RT): Form B

Source: patent US10793554B2, “Solid forms of 4-(2-fluoro-4-(1-methyl-1H-benzo[d]imidazol-5-yl)benzoyl)piperazin-1-yl)(1-hydroxycyclopropyl)methanone” (FORMA Therapeutics, Inc., priority 2018, dated 2020)
